Consider 1 compound from patent US20190224164A1, “COMPOSITIONS AND METHODS FOR TREATMENT OF COPD” (Bodor Laboratories, Inc., priority 2016, published 2019).

This test deals with acetylcholine-induced bronchoconstriction. Nature of the test: Acetylcholine induced bronchoconstriction in anesthetized guinea pigs. It counts as in vivo, guinea pig.

Description: Male Hartley guinea pigs (320±120 g) (Charles River) are housed under standard conditions. Guinea pigs are anesthetized with urethane (2 g/kg, intraperitoneally), the trachea are cannulated and the animal is respired using a small animal respiratory pump (Harvard Apparatus LTD, Kent UK). Respiratory back pressure is measured and recorded using a rodent lung function recording system (MUMED, London UK). For drug administration the right jugular vein is cannulated. Following the surgical procedure, guinea pigs are allowed to stabilize for 20 minutes. Ten minutes before acetylcholine administration, the animals are disconnected from the ventilator and either the vehicle (10 mg lactose) or different amounts of the drug (suspended in the same amount of vehicle) are administered intratracheally. The trachea is reconnected to the ventilator and changes in pulmonary mechanics are followed. Acetylcholine (10 μg/kg) is administered intravenously in every 10 minutes six times. Male Hartley guinea pigs (320±120 g) (Charles River) are housed under standard conditions. Guinea pigs are anesthetized with urethane (2 g/kg, intraperitoneally), the trachea are cannulated and the animal is respired using a small animal respiratory pump (Harvard Apparatus LTD, Kent UK). Respiratory back pressure is measured and recorded using a rodent lung function recording system (MUMED, London UK). […]

Regarding `C[N+]1(C)CCC(OC(=O)C(O)(c2ccccc2)C2CCCC2)C1` (centres unmarked) [glycopyrrolate], the “protective effect on the acetylcholine-induced bronchoconstriction” value is reported as “protective effect” (drug intratracheally ten minutes before acetylcholine (10 μg/kg i.v.)); “protective effect” (ester and zwitterion or their combination products intratracheally, acetylcholine 10 μg/kg i.v.).
